{
  "source": "patent US6201116A",
  "about": "“Halide indicators” (The Regents of the University of California, priority 1999, dated 2001)",
  "key": {"[1]": {"assay": "Fluorescence spectra / optical properties", "format": "physicochemical", "design": "key to Brightness: ++++: very bright; +++: bright; ++: moderate brightness; +: weak", "protocol": "(§1) Computations. In vitro fluorescence quenching studies were carried out at peak excitation and emission wavelengths. Microliter aliquots of the sodium salt of the quenching anion (1 M) were added to indicator solution in 5 mM sodium phosphate (pH 7.2, unless indicated otherwise). Fluorescence intensities in the absence (Fo) and presence (F) of quencher anion ([Q]) were measured to give the Stem-Volmer constant (Kq) as defined by:\nFluorescence spectra reveal that LZQ and LMQ have broad excitation and emission peaks with maxima at 424 and 528 nm, respectively. The molar extinction coefficient of LZQ was 11,100 M^-1 cm^-1 at 424 nm and the quantum yield in the absence of I^- was 0.53. Stem-Volmer plots for quenching of LZQ and LMQ by I^- and Cl^-, with data for SPQ shown for comparison, were generated. In water (or saline), LZQ fluorescence was quenched by I^- with a Stem-Volmer constant of 60 M^-1. LZQ fluorescence was not quenched (Stem-Volmer constant <1 M^-1) by Cl^-, NO3^-, phosphate, acetate, Na^+ and K^+. LZQ fluorescence and I^- sensitivity were not affected by pH changes in the range 4.5-8."}, "[2]": {"assay": "In vitro fluorescence quenching by I^- (Stern-Volmer)", "format": "physicochemical", "protocol": "as §1, with “by: Fo /F=1+Kq [Q].” for “by:”"}, "[3]": {"assay": "In vitro fluorescence quenching by other ions (Stern-Volmer)", "format": "physicochemical", "protocol": "as §1, with “by: Fo /F=1+Kq [Q].” for “by:”"}, "CFTR": {"test_system": "CFTR", "assay": "Colabeling: effect of LZQ on SPQ fluorescence / CFTR-mediated Cl^- transport", "format": "cell-based", "settings": "Cl^-/NO3^- exchange; SPQ alone vs. colabeled with LZQ", "protocol": "Fluorescence microscopy. Fluorescence microscopy measurements were performed as described previously (Chao et al., 1989). Briefly, coverglasses were mounted in a 0.5 ml perfusion chamber in which the cell-free glass surface made contact with an oil immersion objective (Nikon ×40 magnification, numerical aperture[NA] 1.3). Cell fluorescence was excited at 365±10 nm (SPQ) or 420 nm±10 nm (LZQ and LMQ). Emitted fluorescence was detected by a photomultiplier in a Nikon inverted epifluorescence microscope using a 410 nm dichroic mirror and 420 nm barrier filter (SPQ) or a 455 nm dichroic mirror and 500 nm barrier filter (LZQ). For cells colabeled with SPQ and LZQ, SPQ fluorescence was excited at 365±10 nm and detected using a 410 nm dichroic mirror and 455±30 nm interference filter. Confocal fluorescence micrographs were obtained using a Nipkow wheel confocal microscope and cooled CCD camera detector using a ×60 oil immersion objective (Nikon, NA 1.4). […]\nTransport measurements. […] For fluorescence microscopy, glass coverslips were then mounted in a perfusion chamber (flow ~2 ml/min) in which solutions were exchanged using a 4-way valve. For microplate reader measurements, cells in 96-well plates were bathed in […] of the `1st buffer` (see Table 3) and […] of the Cl^- -containing, I^- -free solution was injected into the well to drive Cl^- /I^- exchange (protocol 1). […]"}},
  "data": [
    {"smiles": "[O-]c1nc2c(N[C@@H]3O[C@H](CO)[C@@H](O)[C@H]3O)ncnc2[n+]2ccccc12", "note": "[I, 4-(β-D-ribofuranosylamino)-pyrido [2,1-h] pteridin-11-ium-5-olate]", "values": [
      {"measurement": "emission maximum", "setting": "[1]", "result": 528, "unit": "nm"},
      {"measurement": "excitation maximum", "setting": "[1]", "result": 424, "unit": "nm"},
      {"measurement": "Brightness", "setting": "[1]; Table 4", "result": "+++"},
      {"measurement": "λem (emission wavelength)", "setting": "[1]; Table 4", "result": 528, "unit": "nm"},
      {"measurement": "λex (excitation wavelength)", "setting": "[1]; Table 4", "result": 424, "unit": "nm"},
      {"measurement": "molar extinction coefficient", "setting": "[1]; at 424 nm", "result": "11,100 M^-1 cm^-1"},
      {"measurement": "quantum yield", "setting": "[1]; in the absence of I^-", "result": 0.53},
      {"measurement": "effect of pH on fluorescence", "setting": "[1]; pH 4.5-8", "result": "not affected"},
      {"measurement": "Ksv (I^-), Stern Volmer quenching constant", "setting": "[2]; Table 4", "result": 60, "unit": "M⁻¹"},
      {"measurement": "Stern-Volmer constant, quenching by I^-", "setting": "[2]; in water (or saline)", "result": 60, "unit": "M⁻¹"},
      {"measurement": "effect of pH on I^- sensitivity", "setting": "[2]; pH 4.5-8", "result": "not affected"},
      {"measurement": "Stern-Volmer constant, K^+", "setting": "[3]; K^+", "result": "< 1", "unit": "M⁻¹"},
      {"measurement": "Stern-Volmer constant, NO3^-", "setting": "[3]; NO3^-", "result": "< 1", "unit": "M⁻¹"},
      {"measurement": "Stern-Volmer constant, Na^+", "setting": "[3]; Na^+", "result": "< 1", "unit": "M⁻¹"},
      {"measurement": "Stern-Volmer constant, acetate", "setting": "[3]; acetate", "result": "< 1", "unit": "M⁻¹"},
      {"measurement": "Stern-Volmer constant, phosphate", "setting": "[3]; phosphate", "result": "< 1", "unit": "M⁻¹"},
      {"measurement": "effect on time course of SPQ fluorescence / CFTR-mediated Cl^- transport", "setting": "CFTR", "result": "did not affect the time course of SPQ fluorescence"}
    ]}
  ]
}
